Patent US20080280906A1, “Imidazolyl-Pyrimidine Compounds for Use in the Treatment of Proliferative Disorders” (priority 2005, published 2008)
pIC50: −log10 of the molar value.

Biological target: T1, CDK2/Cyclin E (Homo sapiens, UniProt P24941)
T1 construct: The open reading frames of CDK2 and Cyclin E were isolated by reverse transcriptase-PCR; made in house; host or cells: SF21 (Spodoptera frugiperda) insect cells, baculovirus co-infection
Assay: in vitro kinase assay, Scintillation Proximity Assay (SPA), [γ-33-P]-ATP incorporation into GST-Rb
Format: biochemical
Settings: GST-Rb substrate, 0.2 μM ATP, 60 minutes room temperature, read-out: CDK2 inhibitory activity IC50
Protocol: The compounds were tested in an in vitro kinase assay in 96 well format using Scintillation Proximity Assay (SPA—obtained from Amersham) for measuring incorporation of [γ-33-P]-Adenosine Triphosphate into a test substrate (GST-Retinoblastoma protein; GST-Rb). In each well was placed the compound to be tested (diluted in DMSO and water to correct concentrations) and in control wells either roscovitine as an inhibitor control or DMSO as a positive control. […]
The plates were sealed with Topseal-S plate sealers, left for two hours then spun at 2500 rpm, 1124×g., for 5 minutes. The plates were read on a Topcount for 30 seconds per well. […]
E. coli paste was resuspended in 10 ml/g of NETN buffer (50 mM Tris pH 7.5, 120 mM NaCl, 1 mM EDTA, 0.5% v/v NP-40, 1 mM PMSF, 1 ug/ml leupeptin, 1 ug/ml aprotinin and 1 ug/ml pepstatin) and sonicated for 2×45 seconds per 100 ml homogenate. […] The final product was analysed by Sodium Dodeca Sulfate (SDS) PAGE (Polyacrylamide gel) using 8-16% Tris-Glycine gels (Novex, San Diego, USA).
The open reading frames of CDK2 and Cyclin E were isolated by reverse transcriptase-PCR using HeLa cell and activated T cell mRNA as a template and cloned into the insect expression vector pVL1393 (obtained from Invitrogen 1995 catalogue number: V1392-20). […]

pIC50: 8.52
SMILES: Cc1ncc(-c2ccnc(Nc3ccc(C(=O)N4CCOCC4)cc3)n2)n1C(C)C [Example 14]
